Experimental data taken from patent publication US9512120B2, “Microbicidally active imidazopyridine derivatives” (Syngenta Participations AG, priority 2013, dated 2016).

Legend:
[1] = test system: Mycosphaerella graminicola (Septoria tritici); assay: Mycosphaerella graminicola (Septoria tritici) / liquid culture (Septoria blotch); type: cell-based; details: Zymoseptoria tritici, PDB, 24° C., 4-5 days after application, read-out: control of Mycosphaerella graminicola (inhibition of growth, photometric)
Experimental: (§1) Mycosphaerella graminicola (Septoria tritici)/Liquid Culture (Septoria Blotch): Conidia of the fungus from cryogenic storage were directly mixed into nutrient broth (PDB potato dextrose broth). After placing a DMSO solution of test compound into a 96-well microtiter plate at an application rate of 200 ppm, the nutrient broth containing the fungal spores was added. The test plates were incubated at 24° C. and the inhibition of growth was determined photometrically 4-5 days after application.

[2] = test system: Thanatephorus cucumeris (Rhizoctonia solani); assay: Thanatephorus cucumeris (Rhizoctonia solani) / liquid culture (foot rot, damping-off); type: cell-based; details: PDB, 24° C., 3-4 days after application, read-out: control of Thanatephorus cucumeris (inhibition of growth, photometric)
Experimental: Thanatephorus cucumeris (Rhizoctonia solani)/Liquid Culture (Foot Rot, Damping-Off): Mycelia fragments of a newly grown liquid culture of the fungus are directly mixed into nutrient broth (PDB potato dextrose broth). After placing a DMSO solution of the test compounds into a 96-well microtiter plate at an application rate of 200 ppm, the nutrient broth containing the fungal material was added. The test plates were incubated at 24° C. and the inhibition of growth was determined photometrically 3-4 days after application.

Pyrenophora teres = Pyrenophora teres / barley / leaf disc preventative (net blotch); type: in vivo; details: foliar, barley leaf segments cv Hasso, inoculated two days after application, assessed 5-7 days after application, read-out: control of Pyrenophora teres (disease control compared to untreated)
Experimental: Pyrenophora Teres/Barley/Leaf Disc Preventative (Net Blotch): Barley leaf segments cv Hasso are placed on agar in a 24-well plate and sprayed with formulated test compound diluted in water at an application rate of 200 ppm. The leaf segments are inoculated with a spore suspension of the fungus two days after application of the test solution. The inoculated leaf segments are incubated at 20° C. and 65% relative humidity under a light regime of 12/12 h (light/dark) in a climate cabinet and the activity of a compound is assessed as disease control compared to untreated when an appropriate level of disease damage appears in untreated check leaf segments (5-7 days after application).

[3] = test system: Puccinia recondita f. sp. Tritici; assay: Puccinia recondita f. sp. tritici / wheat / leaf disc preventative (brown rust); type: in vivo; details: foliar, wheat leaf segments cv Kanzler, inoculated 1 day after application, assessed 7-9 days after application, read-out: control of Puccinia recondita f. sp. Tritici (percent disease control compared to untreated)
Experimental: Puccinia recondita f. Sp. Tritici/Wheat/Leaf Disc Preventative (Brown Rust): Wheat leaf segments cultivated variety (cv) Kanzler were placed on agar in 24-well plates and sprayed with formulated test compound diluted in water at an application rate of 200 ppm. The leaf disks were inoculated with a spore suspension of the fungus 1 day after application. The inoculated leaf segments were incubated at 19° C. and 75% relative humidity under a light regime of 12/12 h (light/dark) in a climate cabinet and the activity of a compound was assessed as percent disease control compared to untreated when an appropriate level of disease damage appears in untreated check leaf segments (7-9 days after application).

[4] = test system: Botryotinia fuckeliana (Botrytis cinerea); assay: Botryotinia fuckeliana (Botrytis cinerea) / liquid culture (gray mould); type: cell-based; details: Vogels broth, 24° C., 3-4 days after application, read-out: control of Botryotinia fuckeliana (inhibition of growth, photometric)
Experimental: as §1, with “Botryotinia Fuckeliana (Botrytis cinerea)/Liquid” for “Mycosphaerella graminicola (Septoria tritici)/Liquid”, “(Gray Mould):” for “(Septoria Blotch):”, “(Vogels” for “(PDB potato dextrose”, “3-4” for “4-5”

`Nc1ncnn1-c1nc2cncc(-c3ccc(Cl)cc3Cl)c2n1C1CC1` [Compound 119, 2-[1-cyclopropyl-7-(2,4-dichlorophenyl)imidazo[4,5-c]pyridin-2-yl]-1,2,4-triazol-3-amine] gave an inhibition at 20 ppm [1] of at least 80%, an inhibition at 20 ppm [2] of at least 80% and a pest or weed control at 200 ppm (Pyrenophora teres) of at least 80%.
`Nc1ncnn1-c1nc2cncc(-c3ccccc3Cl)c2n1C1CC1` [Compound 125, 2-[7-(2-chlorophenyl)-1-cyclopropylimidazo[4,5-c]pyridin-2-yl]-1,2,4-triazol-3-amine] was tested, and the inhibition at 20 ppm [2] was at least 80%.
In the case of `CCn1c(-n2ncnc2N)nc2cncc(C=Cc3ccc(C)cc3)c21` [Compound 71, 2-[1-ethyl-7-[2-(4-methylphenyl)ethenyl]imidazo[4,5-c]pyridin-2-yl]-1,2,4-triazol-3-amine], the inhibition at 20 ppm [2] is reported as at least 80%.
`CCn1c(-n2ncnc2N)nc2cncc(-c3ccc(Cl)c(Cl)c3)c21` [Compound 36, 2-[7-(3,4-dichlorophenyl)-1-ethylimidazo[4,5-c]pyridin-2-yl]-1,2,4-triazol-3-amine] was tested, and the inhibition at 20 ppm [1] was at least 80%, the inhibition at 20 ppm [2] was at least 80% and the pest or weed control at 200 ppm (Pyrenophora teres) was at least 80%. The pest or weed control at 200 ppm [3] was at least 80%.
`CCn1c(-n2ncnc2N)nc2cncc(-c3ccc(C)c(C)c3)c21` [Compound 46, 2-[7-(3,4-dimethylphenyl)-1-ethylimidazo[4,5-c]pyridin-2-yl]-1,2,4-triazol-3-amine] was tested, and the inhibition at 20 ppm [1] was at least 80%, the inhibition at 20 ppm [2] was at least 80% and the inhibition at 20 ppm [4] was at least 80%.
For `CCn1c(-n2ncnc2N)nc2cncc(-c3ccc(-c4ccc(F)cc4)nc3)c21` [Compound 54, 2-[1-ethyl-7-[6-(4-fluorophenyl)pyridin-3-yl]imidazo[4,5-c]pyridin-2-yl]-1,2,4-triazol-3-amine], the inhibition at 20 ppm [1] was at least 80%, the inhibition at 20 ppm [2] was at least 80% and the inhibition at 20 ppm [4] was at least 80%. The pest or weed control at 200 ppm [3] was at least 80%.
In the case of `CCn1c(-n2ncnc2N)nc2cncc(-c3cccnc3OC)c21` [Compound 58, 2-[1-ethyl-7-(2-methoxypyridin-3-yl)imidazo[4,5-c]pyridin-2-yl]-1,2,4-triazol-3-amine], the inhibition at 20 ppm [2] is reported as at least 80% and the pest or weed control at 200 ppm (Pyrenophora teres) is reported as at least 80%.
In the case of `CCn1c(-n2ncnc2N)nc2cncc(/C(C)=N/OC(C)C)c21` [Compound 167], the inhibition at 20 ppm [1] is reported as at least 80%, the inhibition at 20 ppm [2] is reported as at least 80% and the pest or weed control at 200 ppm (Pyrenophora teres) is reported as at least 80%. The pest or weed control at 200 ppm [3] was at least 80%.
`CCn1c(-n2ncnc2N)nc2cncc(-c3cccc(C(F)(F)F)c3)c21` [Compound 31, 2-[1-ethyl-7-[3-(trifluoromethyl)phenyl]imidazo[4,5-c]pyridin-2-yl]-1,2,4-triazol-3-amine] gave an inhibition at 20 ppm [2] of at least 80%, a pest or weed control at 200 ppm (Pyrenophora teres) of at least 80% and an inhibition at 20 ppm [4] of at least 80%.
`CCn1c(-n2ncnc2N)nc2cncc(-c3ccc(C)c([N+](=O)[O-])c3)c21` [Compound 44, 2-[1-ethyl-7-(4-methyl-3-nitrophenyl)imidazo[4,5-c]pyridin-2-yl]-1,2,4-triazol-3-amine] gave an inhibition at 20 ppm [2] of at least 80%.
In the case of `CCn1c(-n2ncnc2N2C(=O)CCC2=O)nc2cncc(-c3ccc(Cl)cc3Cl)c21` [Compound 114], the pest or weed control at 200 ppm (Pyrenophora teres) is reported as at least 80%.
Compound `CCOC(=O)C(C)O/N=C(\C)c1cncc2nc(-n3ncnc3N)n(CC)c12` (stereo not drawn) [Compound 159] has an inhibition at 20 ppm [2] of at least 80%.
In the case of `CCn1c(-n2ncnc2N)nc2cncc(C(C)=NOc3ccccc3)c21` [Compound 168], the inhibition at 20 ppm [1] is reported as at least 80%, the inhibition at 20 ppm [2] is reported as at least 80% and the pest or weed control at 200 ppm (Pyrenophora teres) is reported as at least 80%. For the same compound, the pest or weed control at 200 ppm [3] was at least 80%.
With `C=C(C)CO/N=C(\C)c1cncc2nc(-n3ncnc3N)n(CC)c12` [Compound 179] the inhibition at 20 ppm [1] was at least 80%, the inhibition at 20 ppm [2] was at least 80% and the inhibition at 20 ppm [4] was at least 80%.
Compound `CCn1c(-n2ncnc2N)nc2cncc(-c3ccc(Cl)c(C(F)(F)F)c3)c21` [Compound 49] has an inhibition at 20 ppm [1] of at least 80%, an inhibition at 20 ppm [2] of at least 80% and a pest or weed control at 200 ppm (Pyrenophora teres) of at least 80%. The inhibition at 20 ppm [4] was at least 80%.
`CCn1c(-n2ncnc2N)nc2cncc(-c3cc4ccccc4o3)c21` [Compound 51, 2-[7-(1-benzofuran-2-yl)-1-ethylimidazo[4,5-c]pyridin-2-yl]-1,2,4-triazol-3-amine] showed an inhibition at 20 ppm [2] of at least 80% and a pest or weed control at 200 ppm (Pyrenophora teres) of at least 80%.
Work on `CCn1c(-n2ncnc2N)nc2cncc(-c3cnc(Cl)c(C)c3)c21` [Compound 65, 2-[7-(6-chloro-5-methylpyridin-3-yl)-1-ethylimidazo[4,5-c]pyridin-2-yl]-1,2,4-triazol-3-amine] yielded an inhibition at 20 ppm [2] of at least 80% and a pest or weed control at 200 ppm (Pyrenophora teres) of at least 80%.
With `CCn1c(-n2ncnc2N)nc2cncc(/C(C)=N/OCC(C)C)c21` [Compound 162] the inhibition at 20 ppm [1] was at least 80%, the inhibition at 20 ppm [2] was at least 80% and the pest or weed control at 200 ppm [3] was at least 80%.
With `Nc1ncnn1-c1nc2cncc(-c3ccccc3Cl)c2n1C1CCCCC1` [Compound 126, 2-[7-(2-chlorophenyl)-1-cyclohexylimidazo[4,5-c]pyridin-2-yl]-1,2,4-triazol-3-amine] the inhibition at 20 ppm [4] was at least 80%.
`CCn1c(-n2ncnc2N)nc2cncc(-c3cc(C)sc3C)c21` [Compound 52, 2-[7-(2,5-dimethylthiophen-3-yl)-1-ethylimidazo[4,5-c]pyridin-2-yl]-1,2,4-triazol-3-amine] gave an inhibition at 20 ppm [1] of at least 80%, an inhibition at 20 ppm [2] of at least 80% and an inhibition at 20 ppm [4] of at least 80%.
With `CCn1c(-n2ncnc2N)nc2cncc(-c3cc(C)c(OC)c(C)c3)c21` [Compound 47, 2-[1-ethyl-7-(4-methoxy-3,5-dimethylphenyl)imidazo[4,5-c]pyridin-2-yl]-1,2,4-triazol-3-amine] the inhibition at 20 ppm [2] was at least 80%, the pest or weed control at 200 ppm (Pyrenophora teres) was at least 80% and the pest or weed control at 200 ppm [3] was at least 80%.
With `CCn1c(-n2ncnc2N)nc2cncc(C=CC3CCCCC3)c21` [Compound 70, 2-[7-(2-cyclohexylethenyl)-1-ethylimidazo[4,5-c]pyridin-2-yl]-1,2,4-triazol-3-amine] the inhibition at 20 ppm [1] was at least 80% and the pest or weed control at 200 ppm (Pyrenophora teres) was at least 80%.
`Cc1cncc2nc(-n3ncnc3N)n(C3CC3)c12` [Compound 175, 2-(1-cyclopropyl-7-methyl-imidazo[4,5-c]pyridin-2-yl)-1,2,4-triazol-3-amine] showed a pest or weed control at 200 ppm (Pyrenophora teres) of at least 80%.
`CCn1c(-n2ncnc2N)nc2cncc(C(C)=NOCc3cc(Cl)c(Cl)cc3Cl)c21` [Compound 164] was tested, and the inhibition at 20 ppm [1] was at least 80%, the inhibition at 20 ppm [2] was at least 80% and the pest or weed control at 200 ppm (Pyrenophora teres) was at least 80%.
`CCn1c(-n2ncnc2N)nc2cncc(-c3ccc(OC)c(F)c3)c21` [Compound 43, 2-[1-ethyl-7-(3-fluoro-4-methoxyphenyl)imidazo[4,5-c]pyridin-2-yl]-1,2,4-triazol-3-amine] gave an inhibition at 20 ppm [1] of at least 80%, an inhibition at 20 ppm [2] of at least 80% and a pest or weed control at 200 ppm (Pyrenophora teres) of at least 80%. The inhibition at 20 ppm [4] was at least 80%.
`CCn1c(-n2ncnc2N2C(=O)CCC2=O)nc2cncc(C(C)=O)c21` [Compound 113, 1-[2-(7-acetyl-1-ethylimidazo[4,5-c]pyridin-2-yl)-1,2,4-triazol-3-yl]pyrrolidine-2,5-dione] was tested, and the pest or weed control at 200 ppm (Pyrenophora teres) was at least 80%.
`CCn1c(-n2ncnc2N)nc2cncc(-c3ccc(C(F)(F)F)nc3)c21` [Compound 63, 2-[1-ethyl-7-[6-(trifluoromethyl)pyridin-3-yl]imidazo[4,5-c]pyridin-2-yl]-1,2,4-triazol-3-amine] showed an inhibition at 20 ppm [2] of at least 80% and a pest or weed control at 200 ppm (Pyrenophora teres) of at least 80%.
`CCn1c(-n2ncnc2N)nc2cncc(-c3cccc(Cl)c3)c21` [Compound 34, 2-[7-(3-chlorophenyl)-1-ethylimidazo[4,5-c]pyridin-2-yl]-1,2,4-triazol-3-amine] was tested, and the inhibition at 20 ppm [1] was at least 80%, the inhibition at 20 ppm [2] was at least 80% and the pest or weed control at 200 ppm (Pyrenophora teres) was at least 80%. It also gave an inhibition at 20 ppm [4] of at least 80%.
With `CCn1c(-n2ncnc2N)nc2cncc(-c3ccccc3C(F)(F)F)c21` [Compound 32, 2-[1-ethyl-7-[2-(trifluoromethyl)phenyl]imidazo[4,5-c]pyridin-2-yl]-1,2,4-triazol-3-amine] the inhibition at 20 ppm [2] was at least 80% and the pest or weed control at 200 ppm (Pyrenophora teres) was at least 80%.
